# Results taken from ChEMBL document CHEMBL1158270, “Triangulynes A-H and trangulynic acid, new cytotxic polyacetylenes from the marine sponge Pellina triangulata” (1996).
# Experiments:
# Type in all cases: functional
# CCRF-CEM = test: Cytotoxicity against human CCRF-CEM cells
# HL-60 = test: Cytotoxicity against human HL60 cells
# K562 = test: Cytotoxicity against human K562 cells
# MOLT-4 = test: Cytotoxicity against human MOLT4 cells
# RPMI-8226 = test: Cytotoxicity against human RPMI8226 cells
# SR = test: Cytotoxicity against human SR cells
# HOP-62 = test: Cytotoxicity against human HOP62 cells
# HOP-92 = test: Cytotoxicity against human HOP92 cells
# NCI-H23 = test: Cytotoxicity against human NCI-H23 cells
# NCI-H322M = test: Cytotoxicity against human NCI-H322M cells
# NCI-H460 = test: Cytotoxicity against human NCI-H460 cells
# NCI-H522 = test: Cytotoxicity against human NCI-H522 cells
# COLO 205 = test: Cytotoxicity against human COLO205 cells
# HCC 2998 = test: Cytotoxicity against human HCC2998 cells
# HCT-15 = test: Cytotoxicity against human HCT15 cells
# HT-29 = test: Cytotoxicity against human HT29 cells
# SW-620 = test: Cytotoxicity against human SW620 cells
# SF-268 = test: Cytotoxicity against human SF268 cells
# SF-295 = test: Cytotoxicity against human SF295 cells
# SNB-19 = test: Cytotoxicity against human SNB19 cells
# SNB-75 = test: Cytotoxicity against human SNB75 cells
# LOX IMVI = test: Cytotoxicity against human LOXIMVI cells
# Malme-3M = test: Cytotoxicity against human MALME-3M cells
# M14 = test: Cytotoxicity against human M14 cells
# SK-MEL-2 = test: Cytotoxicity against human SK-MEL-2 cells
# SK-MEL-28 = test: Cytotoxicity against human SK-MEL-28 cells
# SK-MEL-5 = test: Cytotoxicity against human SK-MEL-5 cells
# IGROV-1 = test: Cytotoxicity against human IGROV1 cells
# OVCAR-3 = test: Cytotoxicity against human OVCAR-3 cells
# OVCAR-4 = test: Cytotoxicity against human OVCAR4 cells
# OVCAR-5 = test: Cytotoxicity against human OVCAR5 cells
# OVCAR-8 = test: Cytotoxicity against human OVCAR8 cells
# SK-OV-3 = test: Cytotoxicity against human SKOV3 cells
# CAKI-1 = test: Cytotoxicity against human Caki1 cells
# TK-10 = test: Cytotoxicity against human TK10 cells
# UO-31 = test: Cytotoxicity against human UO31 cells
# DU-145 = test: Cytotoxicity against human DU145 cells
# [1] = Cytotoxicity against human MCF7/ADR cells; conditions: NCI/ADR-RES
# MDA-MB-231 = test: Cytotoxicity against human MDA-MB-231 cells
# MDA-MB-435 = test: Cytotoxicity against human MDA-MB-435 cells
# MDA-N = test: Cytotoxicity against human MDA-N cells
# BT-549 = test: Cytotoxicity against human BT549 cells
# T47D = test: Cytotoxicity against human T47D cells
# 786-0 = test: Cytotoxicity against human 786-0 cells
# PC-3 = test: Cytotoxicity against human PC3 cells
# [2] = read-out: pLC50 (the source's name) (converted)
smiles,measurement,setting,value
C#C[C@H](O)/C=C/CCCCCCCCCC/C=C\CCCCCCC[C@H](O)C#CC#CC#CCO [TRIANGULYNE A],GI50,CCRF-CEM,170 nM
same,LC50,CCRF-CEM,33900 nM
same,TGI,CCRF-CEM; read-out: pTGI (converted),776 nM
same,GI50,HL-60,83.2 nM
same,LC50,HL-60,25100 nM
same,TGI,HL-60; read-out: pTGI (converted),3630 nM
same,GI50,K562,372 nM
same,LC50,K562,37200 nM
same,TGI,K562; read-out: pTGI (converted),2290 nM
same,GI50,MOLT-4,209 nM
same,CC50,MOLT-4; [2],67600 nM
same,TGI,MOLT-4; read-out: pTGI (converted),813 nM
same,GI50,RPMI-8226,30.9 nM
same,LC50,RPMI-8226,100000 nM
same,TGI,RPMI-8226; read-out: pTGI (converted),1000 nM
same,GI50,SR,182 nM
same,LC50,SR,100000 nM
same,TGI,SR; read-out: pTGI (converted),3240 nM
same,GI50,HOP-62,1580 nM
same,CC50,HOP-62; [2],75900 nM
same,TGI,HOP-62; read-out: pTGI (converted),5370 nM
same,GI50,HOP-92,324 nM
same,CC50,HOP-92; [2],15100 nM
same,TGI,HOP-92; read-out: pTGI (converted),1200 nM
same,GI50,NCI-H23,257 nM
same,CC50,NCI-H23; [2],14100 nM
same,TGI,NCI-H23; read-out: pTGI (converted),1290 nM
same,GI50,NCI-H322M,3310 nM
same,CC50,NCI-H322M; [2],57500 nM
same,TGI,NCI-H322M; read-out: pTGI (converted),12000 nM
same,GI50,NCI-H460,347 nM
same,CC50,NCI-H460; [2],42700 nM
same,TGI,NCI-H460; read-out: pTGI (converted),1820 nM
same,GI50,NCI-H522,151 nM
same,CC50,NCI-H522; [2],646 nM
same,TGI,NCI-H522; read-out: pTGI (converted),380 nM
same,GI50,COLO 205,200 nM
same,LC50,COLO 205,2290 nM
same,TGI,COLO 205; read-out: pTGI (converted),417 nM
same,GI50,HCC 2998,257 nM
same,LC50,HCC 2998,2190 nM
same,TGI,HCC 2998; read-out: pTGI (converted),692 nM
same,GI50,HCT-15,407 nM
same,LC50,HCT-15,7240 nM
same,TGI,HCT-15; read-out: pTGI (converted),2090 nM
same,GI50,HT-29,363 nM
same,LC50,HT-29,3630 nM
same,TGI,HT-29; read-out: pTGI (converted),1290 nM
same,GI50,SW-620,339 nM
same,LC50,SW-620,9330 nM
same,TGI,SW-620; read-out: pTGI (converted),1290 nM
same,GI50,SF-268,347 nM
same,CC50,SF-268; [2],12900 nM
same,TGI,SF-268; read-out: pTGI (converted),3890 nM
same,GI50,SF-295,2880 nM
same,CC50,SF-295; [2],51300 nM
same,TGI,SF-295; read-out: pTGI (converted),9550 nM
same,GI50,SNB-19,3390 nM
same,CC50,SNB-19; [2],52500 nM
same,TGI,SNB-19; read-out: pTGI (converted),12000 nM
same,GI50,SNB-75,2000 nM
same,CC50,SNB-75; [2],15800 nM
same,TGI,SNB-75; read-out: pTGI (converted),6610 nM
same,GI50,LOX IMVI,141 nM
same,LC50,LOX IMVI,7940 nM
same,TGI,LOX IMVI; read-out: pTGI (converted),363 nM
same,GI50,Malme-3M,251 nM
same,LC50,Malme-3M,1910 nM
same,TGI,Malme-3M; read-out: pTGI (converted),646 nM
same,GI50,M14,158 nM
same,LC50,M14,3470 nM
same,TGI,M14; read-out: pTGI (converted),813 nM
same,GI50,SK-MEL-2,251 nM
same,CC50,SK-MEL-2; [2],7760 nM
same,TGI,SK-MEL-2; read-out: pTGI (converted),891 nM
same,GI50,SK-MEL-28,708 nM
same,CC50,SK-MEL-28; [2],12000 nM
same,TGI,SK-MEL-28; read-out: pTGI (converted),2290 nM
same,GI50,SK-MEL-5,72.4 nM
same,CC50,SK-MEL-5; [2],479 nM
same,TGI,SK-MEL-5; read-out: pTGI (converted),200 nM
same,GI50,IGROV-1,490 nM
same,CC50,IGROV-1; [2],8130 nM
same,TGI,IGROV-1; read-out: pTGI (converted),1820 nM
same,GI50,OVCAR-3,372 nM
same,CC50,OVCAR-3; [2],5250 nM
same,TGI,OVCAR-3; read-out: pTGI (converted),1510 nM
same,GI50,OVCAR-4,851 nM
same,CC50,OVCAR-4; [2],38000 nM
same,TGI,OVCAR-4; read-out: pTGI (converted),6310 nM
same,GI50,OVCAR-5,4470 nM
same,CC50,OVCAR-5; [2],34700 nM
same,TGI,OVCAR-5; read-out: pTGI (converted),12000 nM
same,GI50,OVCAR-8,129 nM
same,CC50,OVCAR-8; [2],21900 nM
same,TGI,OVCAR-8; read-out: pTGI (converted),851 nM
same,GI50,SK-OV-3,2820 nM
same,CC50,SK-OV-3; [2],37200 nM
same,TGI,SK-OV-3; read-out: pTGI (converted),7940 nM
same,GI50,CAKI-1,251 nM
same,CC50,CAKI-1; [2],3390 nM
same,TGI,CAKI-1; read-out: pTGI (converted),676 nM
same,GI50,TK-10,646 nM
same,CC50,TK-10; [2],11000 nM
same,TGI,TK-10; read-out: pTGI (converted),2090 nM
same,GI50,UO-31,1290 nM
same,CC50,UO-31; [2],5500 nM
same,TGI,UO-31; read-out: pTGI (converted),2690 nM
same,GI50,DU-145,1410 nM
same,CC50,DU-145; [2],18200 nM
same,TGI,DU-145; read-out: pTGI (converted),5500 nM
same,GI50,[1],302 nM
same,CC50,[1]; [2],32400 nM
same,TGI,[1]; read-out: pTGI (converted),5130 nM
same,GI50,MDA-MB-231,229 nM
same,CC50,MDA-MB-231; [2],9120 nM
same,TGI,MDA-MB-231; read-out: pTGI (converted),603 nM
same,GI50,MDA-MB-435,170 nM
same,CC50,MDA-MB-435; [2],4470 nM
same,TGI,MDA-MB-435; read-out: pTGI (converted),832 nM
same,GI50,MDA-N,240 nM
same,CC50,MDA-N; [2],8510 nM
same,TGI,MDA-N; read-out: pTGI (converted),3090 nM
same,GI50,BT-549,794 nM
same,CC50,BT-549; [2],11000 nM
same,TGI,BT-549; read-out: pTGI (converted),2400 nM
same,GI50,T47D,1510 nM
same,CC50,T47D; [2],47900 nM
same,TGI,T47D; read-out: pTGI (converted),7240 nM
same,GI50,786-0,288 nM
same,CC50,786-0; [2],3980 nM
same,TGI,786-0; read-out: pTGI (converted),1100 nM
same,GI50,PC-3,191 nM
same,CC50,PC-3; [2],10000 nM
same,TGI,PC-3; read-out: pTGI (converted),1100 nM
